Laboratory results reported in US7459455B2, “Pyrimidine compounds” (SmithKline Beecham Corporation, priority 2002, dated 2008).

Key:
Recombinant GST-Tie2 = biological target: T1, Recombinant GST-Tie2 (Homo sapiens, UniProt Q02763); assay: Tie2 Fluorescence Polarization Kinase Activity Assay (TIE2-FP); assay type: biochemical; settings: activated Tie2, 200 μM ATP
T1 construct: GST
Procedure: Tie2 Fluorescence Polarization Kinase Activity Assay: (TIE2-FP)
Activation of Recombinant Tie2 Activation:
Recombinant GST-Tie2 was activated by incubating the enzyme in 20 mM Tris-HCl, pH 7.5, 12 mM MgCl2, 100 mM NaCl, 20 μM sodium vanidate, 1 mM DT and 300 μM ATP at room temperature for 2 hours. The activation mixture was then passed through a NAP-25 desalting column (Pharmacia Biotech cat. no. 17-0852-O2) to remove the free ATP. The activated enzyme was stored as aliquots at −80° C. in 20 mM Tris-HCl, pH 7.5 and 100 mM NaCl.
The final assay conditions were 50 mM HEPES, pH 7.5, 5% DMSO (when screening compounds), 200 μM ATP, 5 mM MgCl2, 1 mM DTT, 50 μM sodium vanidate, 1 nM activated enzyme, and 200 μM peptide. IC50's of compounds were measured under subsaturating ATP (200 μM) and varing concentrations of activated Tie2 and peptide substrate (RFWKYEFWR-OH; MW 1873 Da, TFA salt). Panvera Anti-phosphotyrosine antibody (Cat#P2840) and PTK Green Tracer (Cat#P2842) were used to detect the phosphorylated peptide. Polarization was measured on a TECAN Polarion in 138-second cycles for 30 minutes at room temperature. IC50's were then determined from the % polarization using normal calculation methods.

[1] = system: Human umbilical cord endothelial cells (HUVEC); assay: VEGF-Driven Cellular Proliferation Assay: BrdU Incorporation Assay (VEGF-C); assay type: cell-based
Procedure: VEGF-Driven Cellular Proliferation Assay: BrdU Incorporation Assay (VEGF-C)
Human umbilical cord endothelial cells (HUVEC, Clonetics, CC2519) were passaged in Type I collagen-coated 100-mm petridishes in EGM-MV medium (Clonetics, CC3125) at 37 C in a humidified 5% CO2, 95% air incubator. (HUVEC passaged more than 6 times in vitro were discarded and not subjected to assaying.) The cells were harvested using trypsin/EDTA, counted using a haemocytometer and plated at 5000 cells/well in a Type I-collagen coated 96-well plate (Becton Dickinson, 354407) in M199 medium (Gibco BRL, 12340-030) containing 5% FBS (Hyclone, A 1115-L) and gentamicin (at 50 ug/ml, Gibco BRL). After incubation overnight at 37° C., the media were replaced with 100 ul of M199 serum-free medium containing compounds at various concentrations with 0.6% DMSO and gentamicin. The compounds were diluted in serum-free M199 medium from 10 mM stock solutions prepared in 100% DMSO. After a 30 min incubation at 37° C. the cells were fed with 100 ul of serum-free M199 medium containing gentamicin, 0.2% culture-grade bovine serum albumin (BSA, Sigma A1993) and 20 ng/ml of VEGF (R&D systems, 293-VE) or 0.6 ng/ml of basic FGF (R&D systems, 233-FB), and cultured at 37° C. for another 24 h. The cells were pulsed with bromodeoxyuridine (BrdU at 10 μM in serum-free M199) at 37° C. for an additional 24 h. The incorporation of BrdU into the proliferating HUVEC were analyzed using BrdU Cell Proliferation ELISA (Roche Molecular Biochemicals, 1647229) according to the manufacturer's protocols. The optical density at 450 nm was measured with a multilabel counter (ARVO SX, Wallac). The percent inhibition of cell growth was calculated relative to blank control wells. The concentration of test compound that inhibits 50% of cell growth (IC50) was interpolated using nonlinear regression (Levernberg-Marquardt) and the equation, γ=Vmax (1−x/(K+x))+Y2, where “K” was equal to the IC50. The IC50 values were converted to pIC50 values, i.e., −log IC50 in Molar concentration.

GST-VEGFR2 = biological target: T2, GST-VEGFR2 (Homo sapiens, UniProt P35968); assay: VEGF-R2 Enzyme Assay (VEGF-E), LANCE method; assay type: biochemical; settings: GST-VEGFR2, 75 μM ATP, peptide phosphorylation
T2 construct: GST-VEGFR2, baculovirus expressed recombinant constructs of the intracellular domains of human TIE2 tagged by GST; made in house
T2 sequence (P35968 786-1356 limits assumed): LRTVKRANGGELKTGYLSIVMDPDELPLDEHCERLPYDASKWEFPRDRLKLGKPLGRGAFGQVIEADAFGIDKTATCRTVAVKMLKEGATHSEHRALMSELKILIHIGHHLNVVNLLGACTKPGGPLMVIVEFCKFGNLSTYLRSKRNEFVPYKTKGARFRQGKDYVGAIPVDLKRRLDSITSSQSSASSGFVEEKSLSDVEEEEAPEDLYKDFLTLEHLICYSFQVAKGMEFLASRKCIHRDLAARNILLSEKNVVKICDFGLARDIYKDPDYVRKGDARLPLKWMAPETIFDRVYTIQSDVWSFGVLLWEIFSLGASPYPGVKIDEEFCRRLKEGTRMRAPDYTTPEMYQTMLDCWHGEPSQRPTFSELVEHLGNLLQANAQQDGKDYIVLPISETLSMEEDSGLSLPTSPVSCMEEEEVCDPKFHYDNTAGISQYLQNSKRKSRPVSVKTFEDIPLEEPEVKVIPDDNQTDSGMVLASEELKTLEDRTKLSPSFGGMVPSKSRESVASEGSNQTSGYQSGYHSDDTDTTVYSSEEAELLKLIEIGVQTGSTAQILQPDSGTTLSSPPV
Description: VEGF-R2 Enzyme Assay VEGF-E)
The VEGF enzyme assay used the LANCE method (Wallac) and GST-VEGFR2, baculovirus expressed recombinant constructs of the intracellular domains of human TIE2 tagged by GST. The method measured the ability of the purified enzymes to catalyse the transfer of the γ-phosphate from ATP onto tyrosine residues in a biotinylated synthetic peptide, (biotin-aminohexyl-EEEEYFELVAKKKK-NH2). This peptide phosphorylation was detected using the following procedure: GST-VEGFR2 was incubated for 40-60 mins at room temperature with 75 μM ATP, 5 mM MgCl2, 0.1 mM DTT, 0.1 mg/mL BSA and the test compound (diluted from a 10 mM stock in DMSO for desired concentration) in 100 mM HEPES buffer. The reaction was stopped by the addition of EDTA (final concentration 50 mM). Streptavidin linked-APC (allophycocyanin, Molecular Probe) and Europium-labeled anti-phosphorylated tyrosile antibody (Wallac) were then added at the final concentration of 15 nM and 1 nM, respectively. The APC signal was measured using an ARVO multilabel counter (Wallac Berthold, Japan). The percent inhibition of activity was calculated relative to blank control wells. The concentration of test compound that inhibits 50% of activity (IC50) was interpolated using nonlinear regression (Levernberg-Marquardt) and the equation, γ=Vmax (1−x/(K+x))+Y2, where “K” was equal to the IC50. The IC50 values were converted to pIC50 values, i.e., −log IC50 in Molar concentration.

T1 sequence (Q02763 770-1124 limits assumed): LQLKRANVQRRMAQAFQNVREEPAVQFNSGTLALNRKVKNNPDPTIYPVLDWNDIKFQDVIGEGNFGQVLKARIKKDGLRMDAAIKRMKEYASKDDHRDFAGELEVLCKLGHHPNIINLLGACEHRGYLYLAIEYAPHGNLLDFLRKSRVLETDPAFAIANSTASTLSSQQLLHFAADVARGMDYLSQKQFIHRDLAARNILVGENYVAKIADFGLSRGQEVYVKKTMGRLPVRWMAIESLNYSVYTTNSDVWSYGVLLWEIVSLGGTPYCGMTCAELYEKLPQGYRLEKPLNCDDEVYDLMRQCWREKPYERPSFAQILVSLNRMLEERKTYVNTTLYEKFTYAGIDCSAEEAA

| IC50 (Recombinant GST-Tie2) [µM] | IC50 (GST-VEGFR2) [µM] | Compound | IC50 [1] [µM] |
| --- | --- | --- | --- |
| < 0.1 | < 0.1 | Cc1cccc(NC(=O)Nc2ccc(N(C)c3ccnc(Nc4cccc(S(N)(=O)=O)c4)n3)cc2)c1 [Example 4, 3-[(4-{methyl[4-({[(3-methylphenyl)amino]carbonyl}amino)phenyl]amino}pyrimidin-2-yl)amino]benzenesulfonamide] | < 0.1 |
| < 0.1 | < 0.1 | CCS(=O)(=O)c1ccc(OC)c(Nc2nccc(N(C)c3ccc(NC(=O)Nc4cc(C(F)(F)F)ccc4F)cc3)n2)c1 [Example 17, N-{4-[(2-{[5-(Ethylsulfonyl)-2-methoxyphenyl]amino}pyrimidin-4-yl)(methyl)amino]phenyl}-N′-[2-fluoro-5-(trifluoromethyl)phenyl]urea] | < 0.1 |
| < 0.1 | < 0.1 | CCc1cccc(NC(=O)Nc2ccc(N(C)c3ccnc(Nc4cccc(S(N)(=O)=O)c4)n3)cc2)c1 [Example 6, 3-({4-[[4-({[(3-ethylphenyl)amino]carbonyl}amino)phenyl](methyl)amino]pyrimidin-2-yl}amino)benzenesulfonamide] | < 0.1 |
